The experiment concerns MM3MG-HER2Δ16 cells. Briefly: In vitro ADCP and ADCC by bone marrow derived macrophages (BMDM). It is filed as cell-based, mouse. As to conditions: Concanamycin A 1 μM in BMDM co-culture.

Each structure is given as a SMILES string.

Procedure: MM3MG-HER2Δ16 cells were labeled with Brilliant Violet 450 Dye, and co-cultured with BMDM (3:1 ratio) with control or anti-HER2 antibodies (10 μg/mL). ADCP rates were measured by percentage of BMDM uptake of labeled tumor cells (CD45+and BV450+), and Antibody-dependent-cellular-cytotoxicity (ADCC) rates were measured by percentage of dying free tumor cells (CD45− and LIVE/DEAD stain+). […] All data represent mean ±SEM, **P<0.01, ***P<0.001, ****P<0.0001.
ADCP and ADCC by macrophages—Bone marrow derived macrophages (BMDM) were generated from mouse tibia, differentiated for 10 days with 50 ng/mL mouse MCSF (Peprotech 315-02). Briefly, 50 million bone marrow cells were plated in 10 cm^2 tissue culture dish with MCSF on day 0. Unattached cells in supernatant were removed and fresh media+MC SF were added on day 3, day 6 and day 9. BMDM were used for ADCP/ADCC assays on day 10. Tumor cells MM3MG-HER2416 were labeled with Brilliant Violet 450 Dye (BD 562158) according to manufacturer's protocol, and incubated with control or anti-HER2 antibodies (10 μg/mL) in 96-wells (100,000 cells/well) for 30 minutes at 37° C. BMDM were then added for co-culture at a 3:1 ratio of Tumor vs BMDM. After 2 hours co-culture, phagocytosis of BV450-labeled tumor cells by BMDM were analyzed by FACS with CD45-APC staining and Live-death (Red) staining. […]

`C/C=C/[C@H]1O[C@@](O)([C@@H](C)[C@H](O)[C@H](C)[C@H]2OC(=O)/C(OC)=C/C(C)=C/[C@@H](C)[C@@H](O)[C@@H](CC)[C@@H](O)[C@H](C)C/C(C)=C/C=C/[C@@H]2OC)C[C@@H](O[C@H]2C[C@@H](O)[C@H](OC(N)=O)[C@@H](C)O2)[C@@H]1C` [Concanamycin A]: the “effect of ADCC inhibitor on HER2 mAb activities” value is on record as “had no effect on HER2 mAb activities”.

Values taken from patent publication US20220049015A1, “COMPOSITIONS AND METHODS FOR THE TREATMENT AND/OR PREVENTION OF HER2+ CANCERS” (DUKE UNIVERSITY, priority 2018, published 2022).
